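The compound was tested at five concentrations on cells cultured in 96-well plates, with a 48-hour exposure period. The concentration for 50% growth inhibition is given as GI50.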 Calls of active or inactive are those of the source. No stated cut-off is given here; in the data, active = GI50 up to about 1.1 µM and inactive = higher.
Assays:
Test in all cases: NCI-60 cell line screen, 48 h
K562 = test system: K562
NCI-H522 = test system: NCI-H522
UACC-257 = test system: UACC-257
SF-268 = test system: SF-268
CAKI-1 = test system: CAKI-1
UACC-62 = test system: UACC-62
RXF 393 = test system: RXF 393
A549 = test system: A549
OVCAR-8 = test system: OVCAR-8
TK-10 = test system: TK-10
DMS-114 = test system: DMS-114
SK-OV-3 = test system: SK-OV-3
OVCAR-4 = test system: OVCAR-4
SW-620 = test system: SW-620
NCI-H226 = test system: NCI-H226
HCT-15 = test system: HCT-15

CN(C)c1ccc(/C=C(\C#N)C(=O)c2ccccc2)cc1Br
GI50 (K562): 59.8 µM (inactive)
GI50 (NCI-H522): > 100 µM (inactive)
GI50 (UACC-257): > 100 µM (inactive)
GI50 (SF-268): > 100 µM (inactive)
GI50 (CAKI-1): > 100 µM (inactive)
GI50 (UACC-62): 51.3 µM (inactive)
GI50 (RXF 393): 14.6 µM (inactive)
GI50 (A549): > 100 µM (inactive)
GI50 (OVCAR-8): > 100 µM (inactive)
GI50 (TK-10): > 100 µM (inactive)
GI50 (DMS-114): > 100 µM (inactive)
GI50 (SK-OV-3): > 100 µM (inactive)
GI50 (OVCAR-4): > 100 µM (inactive)
GI50 (SW-620): 66.1 µM (inactive)
GI50 (NCI-H226): 39.3 µM (inactive)

N#CCCN(CCC#N)c1ccc(/C=C2\N=C(COc3ccc(Cl)cc3Cl)OC2=O)cc1
GI50 (K562): > 100 µM (inactive)
GI50 (NCI-H522): 29.9 µM (inactive)
GI50 (UACC-257): > 100 µM (inactive)
GI50 (SF-268): > 100 µM (inactive)
GI50 (CAKI-1): > 100 µM (inactive)
GI50 (UACC-62): > 100 µM (inactive)
GI50 (A549): > 100 µM (inactive)
GI50 (OVCAR-8): > 100 µM (inactive)
GI50 (TK-10): > 100 µM (inactive)
GI50 (DMS-114): > 100 µM (inactive)
GI50 (SK-OV-3): > 100 µM (inactive)
GI50 (OVCAR-4): > 100 µM (inactive)
GI50 (SW-620): > 100 µM (inactive)
GI50 (HCT-15): > 100 µM

CC1(C)C2CCC13C(=O)C1OC3(C2)C2C(=O)N(c3ccccc3)C(=O)C12 (configuration not stated)
GI50 (K562): > 100 µM (inactive)
GI50 (NCI-H522): 20.1 µM (inactive)
GI50 (UACC-257): > 100 µM (inactive)
GI50 (SF-268): > 100 µM (inactive)
GI50 (CAKI-1): > 100 µM (inactive)
GI50 (UACC-62): > 100 µM (inactive)
GI50 (RXF 393): > 100 µM (inactive)
GI50 (A549): > 100 µM (inactive)
GI50 (OVCAR-8): > 100 µM (inactive)
GI50 (TK-10): > 100 µM (inactive)
GI50 (DMS-114): > 100 µM (inactive)
GI50 (SK-OV-3): > 100 µM (inactive)
GI50 (OVCAR-4): > 100 µM (inactive)
GI50 (SW-620): > 100 µM (inactive)
GI50 (NCI-H226): > 100 µM (inactive)
GI50 (HCT-15): > 100 µM

COc1ccc(O)cc1C=O
GI50 (K562): 33.9 µM (inactive)
GI50 (UACC-257): 48.1 µM (inactive)
GI50 (SF-268): > 100 µM (inactive)
GI50 (UACC-62): 32.7 µM (inactive)
GI50 (RXF 393): > 100 µM (inactive)
GI50 (A549): > 100 µM (inactive)
GI50 (OVCAR-8): > 100 µM (inactive)
GI50 (TK-10): > 100 µM (inactive)
GI50 (DMS-114): 32.8 µM (inactive)
GI50 (SK-OV-3): > 100 µM (inactive)
GI50 (OVCAR-4): > 100 µM (inactive)
GI50 (SW-620): 47.5 µM (inactive)
GI50 (HCT-15): 37.6 µM

C[C@@H]1C[C@]2(C[C@@H](C)C3[C@@H](CC4(C)[C@@H]5CCC6C(C)(C)OC(=O)C=C[C@]67C[C@@]5(CC[C@]34C)OO7)O2)OC1=O (some centres not stated)
GI50 (K562): 28.1 µM (inactive)
GI50 (NCI-H522): 29.6 µM (inactive)
GI50 (UACC-257): 55.2 µM (inactive)
GI50 (UACC-62): 21.2 µM (inactive)
GI50 (RXF 393): > 100 µM (inactive)
GI50 (A549): > 100 µM (inactive)
GI50 (OVCAR-8): 67.5 µM (inactive)
GI50 (TK-10): 52.1 µM (inactive)
GI50 (DMS-114): > 100 µM (inactive)
GI50 (SK-OV-3): 43.6 µM (inactive)
GI50 (OVCAR-4): 24.8 µM (inactive)
GI50 (SW-620): 84.3 µM (inactive)
GI50 (NCI-H226): 24.8 µM (inactive)
GI50 (HCT-15): > 100 µM

Nc1nc(-c2ccco2)cc(-c2ccco2)n1
GI50 (K562): > 100 µM (inactive)
GI50 (NCI-H522): > 100 µM (inactive)
GI50 (SF-268): > 100 µM (inactive)
GI50 (UACC-62): > 100 µM (inactive)
GI50 (RXF 393): > 100 µM (inactive)
GI50 (A549): > 100 µM (inactive)
GI50 (OVCAR-8): > 100 µM (inactive)
GI50 (TK-10): > 100 µM (inactive)
GI50 (DMS-114): > 100 µM (inactive)
GI50 (OVCAR-4): > 100 µM (inactive)
GI50 (SW-620): > 100 µM (inactive)
GI50 (NCI-H226): 71.3 µM (inactive)
GI50 (HCT-15): > 100 µM

COc1ccc(C2S/C(=C\c3cccc(O)c3)C(=O)N2NC(=O)Cc2ccccc2)cc1 (configuration not stated)
GI50 (K562): > 100 µM (inactive)
GI50 (NCI-H522): > 100 µM (inactive)
GI50 (UACC-257): > 100 µM (inactive)
GI50 (SF-268): > 100 µM (inactive)
GI50 (CAKI-1): > 100 µM (inactive)
GI50 (UACC-62): > 100 µM (inactive)
GI50 (RXF 393): 12 µM (inactive)
GI50 (A549): > 100 µM (inactive)
GI50 (OVCAR-8): > 100 µM (inactive)
GI50 (TK-10): > 100 µM (inactive)
GI50 (DMS-114): > 100 µM (inactive)
GI50 (SK-OV-3): > 100 µM (inactive)
GI50 (OVCAR-4): > 100 µM (inactive)
GI50 (SW-620): > 100 µM (inactive)
GI50 (NCI-H226): > 100 µM (inactive)
GI50 (HCT-15): > 100 µM

O=C1[C@H]2ON(c3ccccc3)C(c3ccccc3Cl)[C@H]2C(=O)N1c1ccc(Cc2ccc(N3C(=O)[C@@H]4ON(c5ccccc5)C(c5ccccc5Cl)[C@@H]4C3=O)cc2)cc1 (some centres not stated)
GI50 (K562): > 100 µM (inactive)
GI50 (NCI-H522): > 100 µM (inactive)
GI50 (UACC-257): > 100 µM (inactive)
GI50 (SF-268): > 100 µM (inactive)
GI50 (CAKI-1): > 100 µM (inactive)
GI50 (UACC-62): > 100 µM (inactive)
GI50 (A549): > 100 µM (inactive)
GI50 (OVCAR-8): > 100 µM (inactive)
GI50 (TK-10): > 100 µM (inactive)
GI50 (DMS-114): > 100 µM (inactive)
GI50 (SK-OV-3): > 100 µM (inactive)
GI50 (OVCAR-4): > 100 µM (inactive)
GI50 (SW-620): > 100 µM (inactive)
GI50 (NCI-H226): > 100 µM (inactive)
GI50 (HCT-15): > 100 µM

O=C(CCN1CCCCC1CCO)Nc1ccc2c(c1)C(=O)c1ccc(NC(=O)CCN3CCCCC3CCO)cc1C2=O (configuration not stated)
GI50 (K562): 3.85 µM (inactive)
GI50 (NCI-H522): 2.16 µM (inactive)
GI50 (UACC-257): 5.33 µM (inactive)
GI50 (SF-268): 4.88 µM (inactive)
GI50 (CAKI-1): 23.7 µM (inactive)
GI50 (UACC-62): 2.44 µM (inactive)
GI50 (RXF 393): 2.12 µM (inactive)
GI50 (A549): 16.7 µM (inactive)
GI50 (OVCAR-8): 3.73 µM (inactive)
GI50 (TK-10): 3.1 µM (inactive)
GI50 (DMS-114): 4.08 µM (inactive)
GI50 (SK-OV-3): 5.12 µM (inactive)
GI50 (OVCAR-4): 12.4 µM (inactive)
GI50 (SW-620): 2.12 µM (inactive)
GI50 (NCI-H226): 5.71 µM (inactive)
GI50 (HCT-15): 11.2 µM
